pEC50: −log10 of the molar value. Read-outs that look alike come from different tables or passages of the source.
What was measured:
Type in all cases: cell-based
[1] = target: T1, human glucagon receptor (GCGR) (Homo sapiens, UniProt P47871); test: cAMP assay, human GCGR cells; conditions: cAMP assay
T1 construct: expressed in transfected cells
Summary of the method: (§1)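 Peptide-stimulated cAMP measured by two-step HTRF after a 30 min room-temperature incubation with receptor-expressing cells (hGLP-1R, hGIPR at 1×10^5 cells/ml; hGCGR at 2×10^5 cells/ml). Duplicate dilutions; EC50 from 4-parameter logistic fit of % Delta F.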

[2] = target: T2, human glucose-dependent insulinotropic peptide receptor (GIPR) (Homo sapiens, UniProt P48546); test: cAMP assay, human GIPR cells; conditions: cAMP assay
T2 construct: expressed in transfected cells
T2 sequence (P48546 22-466): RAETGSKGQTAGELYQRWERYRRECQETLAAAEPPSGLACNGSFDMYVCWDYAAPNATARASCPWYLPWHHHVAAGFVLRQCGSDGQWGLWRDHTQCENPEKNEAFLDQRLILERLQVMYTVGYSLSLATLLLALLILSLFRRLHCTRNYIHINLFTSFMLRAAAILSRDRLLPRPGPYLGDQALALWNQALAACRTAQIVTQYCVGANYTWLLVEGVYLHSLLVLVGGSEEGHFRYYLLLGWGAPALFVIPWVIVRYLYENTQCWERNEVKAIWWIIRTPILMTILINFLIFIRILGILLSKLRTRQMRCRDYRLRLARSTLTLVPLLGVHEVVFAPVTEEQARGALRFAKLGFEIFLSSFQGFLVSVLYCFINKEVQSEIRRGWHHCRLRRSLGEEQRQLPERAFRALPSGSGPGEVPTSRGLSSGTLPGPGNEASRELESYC
Summary of the method: as §1

GLP-1R (INS1e assay) = target: T3, GLP-1R (INS1e assay) (Rattus norvegicus, UniProt P32301); test: INS1e assay, cAMP activity at GLP-1R; conditions: mono-lipidated peptides; for EC50: mean of n1 and n2, read-out: INS1e assay EC50 Mean pM GLP-1R
T3 construct: endogenous in cells; host or cells: INS-1E cells
T3 sequence (P32301 22-463): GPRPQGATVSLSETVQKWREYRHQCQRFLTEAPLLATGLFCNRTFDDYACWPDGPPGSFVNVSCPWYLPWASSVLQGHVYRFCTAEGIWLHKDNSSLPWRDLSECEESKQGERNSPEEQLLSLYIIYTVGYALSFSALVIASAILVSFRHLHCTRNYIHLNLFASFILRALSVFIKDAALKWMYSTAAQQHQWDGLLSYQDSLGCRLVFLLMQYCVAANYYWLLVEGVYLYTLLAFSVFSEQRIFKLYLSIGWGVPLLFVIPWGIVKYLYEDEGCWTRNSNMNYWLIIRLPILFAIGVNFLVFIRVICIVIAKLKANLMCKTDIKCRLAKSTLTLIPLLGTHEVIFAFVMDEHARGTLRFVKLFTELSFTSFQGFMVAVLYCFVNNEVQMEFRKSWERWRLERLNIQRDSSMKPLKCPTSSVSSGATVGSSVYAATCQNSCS
Summary of the method: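 cAMP was quantified by two-step HTRF, using anti-cAMP cryptate donor and cAMP-d2 acceptor, each diluted 1/20 in conjugate and lysis buffer. EC50 values of the synthetic peptides were derived from the cAMP readout.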

[3] = target: T4, human GLP-1 receptor (GLP-1R) (Homo sapiens, UniProt P43220); test: cAMP assay, human GLP-1R cells; conditions: for pEC50: cAMP assay; for EC50: mean of n1 and n2, read-out: Mean pM GLP-1R
T4 construct: expressed in transfected cells
Summary of the method: as §1

[4] = first determination (n1), read-out: Primary assay EC50 Gluc-R (n1)
[5] = second determination (n2), read-out: Primary assay EC50 Gluc-R (n2)
[6] = first determination (n1), read-out: Primary assay EC50 GIP-R (n1)
[7] = second determination (n2), read-out: Primary assay EC50 GIP-R (n2)
[8] = replicate n1, read-out: INS1e assay EC50 GLP-1R n1
[9] = replicate n2, read-out: INS1e assay EC50 GLP-1R n2
[10] = first determination (n1), read-out: Primary assay EC50 GLP-1R n1
[11] = second determination (n2), read-out: Primary assay EC50 GLP-1R n2

T1 sequence (P47871 26-477): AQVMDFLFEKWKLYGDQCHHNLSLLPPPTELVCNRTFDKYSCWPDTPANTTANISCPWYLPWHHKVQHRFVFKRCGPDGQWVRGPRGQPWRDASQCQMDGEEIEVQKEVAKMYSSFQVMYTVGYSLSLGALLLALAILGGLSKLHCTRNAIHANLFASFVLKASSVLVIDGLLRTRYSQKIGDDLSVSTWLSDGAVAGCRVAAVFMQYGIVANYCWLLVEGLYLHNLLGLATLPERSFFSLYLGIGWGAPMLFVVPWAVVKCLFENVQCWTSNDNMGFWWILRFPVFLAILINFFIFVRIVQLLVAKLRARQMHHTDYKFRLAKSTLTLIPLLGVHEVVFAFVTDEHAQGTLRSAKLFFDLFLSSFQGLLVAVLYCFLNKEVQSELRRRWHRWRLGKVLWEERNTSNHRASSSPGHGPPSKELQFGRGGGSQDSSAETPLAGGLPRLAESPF
T4 sequence (P43220 24-463): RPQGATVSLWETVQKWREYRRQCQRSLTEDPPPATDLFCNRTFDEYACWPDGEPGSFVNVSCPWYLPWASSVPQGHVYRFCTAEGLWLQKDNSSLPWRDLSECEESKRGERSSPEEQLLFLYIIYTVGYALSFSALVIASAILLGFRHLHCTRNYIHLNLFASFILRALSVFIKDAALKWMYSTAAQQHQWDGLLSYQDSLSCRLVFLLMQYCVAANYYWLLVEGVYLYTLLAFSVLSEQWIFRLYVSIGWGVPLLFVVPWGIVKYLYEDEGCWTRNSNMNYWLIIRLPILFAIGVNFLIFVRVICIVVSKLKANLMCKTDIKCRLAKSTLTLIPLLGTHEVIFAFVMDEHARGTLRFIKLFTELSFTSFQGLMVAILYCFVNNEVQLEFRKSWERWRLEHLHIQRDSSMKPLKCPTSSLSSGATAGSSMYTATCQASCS

## CCCCCCCCCCCCCCCCCC(=O)NCCOCCOCC(=O)NCCOCCOCC(=O)NCCOCCOCC(=O)NCCCC[C@H](NC(=O)[C@H](C)NC(=O)[C@H](C)NC(=O)[C@H](CCC(=O)O)NC(=O)CNC(=O)[C@H](CCC(=O)O)NC(=O)[C@H](CC(C)C)NC(=O)[C@](C)(Cc1ccccc1)NC(=O)[C@H](CO)NC(=O)[C@](C)(CO)NC(=O)[C@@H](NC(=O)[C@H](CC(=O)O)NC(=O)[C@H](CO)NC(=O)[C@@H](NC(=O)[C@](C)(Cc1ccccc1)NC(=O)[C@H](CO)NC(=O)CNC(=O)[C@H](CCC(=O)O)NC(=O)C(C)(C)NC(=O)[C@@H](N)Cc1c[nH]cn1)[C@@H](C)O)C(C)C)C(=O)N[C@@H](CCC(=O)O)C(=O)N[C@@](C)(Cc1ccccc1)C(=O)N[C@H](C(=O)N[C@@H](C)C(=O)N[C@@](C)(Cc1ccccc1)C(=O)N[C@H](C(=O)N[C@H](C(=O)N[C@@](C)(CCCCN)C(=O)NCC(=O)NCC(N)=O)C(C)C)C(C)C)[C@@H](C)CC [compound 154]
[1]; [4]
  pEC50: ≤ 7.59
[1]; [5]
  pEC50: ≤ 7.59
[2]; [6]
  pEC50: ≤ 7.59
[2]; [7]
  pEC50: ≤ 7.59
GLP-1R (INS1e assay)
  EC50: 25 pM
GLP-1R (INS1e assay); [8]
  pEC50: 10.49
GLP-1R (INS1e assay); [9]
  pEC50: 10.77
[3]; [10]
  pEC50: 11.55
[3]; [11]
  pEC50: 11.64
[3]
  EC50: 2.5 pM

## CCCCCCCCCCCC(=O)N[C@@H](CCC(=O)N[C@@H](CCC(=O)N[C@@H](CCC(=O)NCCCC[C@H](NC(=O)[C@@H](NC(=O)[C@@H](NC(=O)[C@](C)(Cc1ccccc1)NC(=O)[C@H](C)NC(=O)[C@@H](NC(=O)[C@](C)(Cc1ccccc1)NC(=O)[C@H](CCC(=O)O)NC(=O)[C@](C)(CCCCN)NC(=O)[C@H](C)NC(=O)[C@H](C)NC(=O)[C@H](CCC(=O)O)NC(=O)CNC(=O)[C@H](CCC(=O)O)NC(=O)[C@H](CC(C)C)NC(=O)[C@](C)(Cc1ccccc1)NC(=O)[C@H](CO)NC(=O)[C@](C)(CO)NC(=O)[C@@H](NC(=O)[C@H](CC(=O)O)NC(=O)[C@H](CO)NC(=O)[C@@H](NC(=O)[C@](C)(Cc1ccccc1)NC(=O)[C@H](CO)NC(=O)CNC(=O)[C@H](CCC(=O)O)NC(=O)C(C)(C)NC(=O)[C@@H](N)Cc1c[nH]cn1)[C@@H](C)O)C(C)C)[C@@H](C)CC)C(C)C)C(C)C)C(=O)NCC(=O)NCC(N)=O)C(=O)O)C(=O)O)C(=O)O [compound 166]
[1]; [4]
  pEC50: ≤ 7.59
[1]; [5]
  pEC50: ≤ 7.59
[2]; [6]
  pEC50: ≤ 7.59
[2]; [7]
  pEC50: ≤ 7.59
GLP-1R (INS1e assay)
  EC50: 460 pM
GLP-1R (INS1e assay); [8]
  pEC50: 9.63
GLP-1R (INS1e assay); [9]
  pEC50: 9.16
[3]; [10]
  pEC50: 11.14
[3]; [11]
  pEC50: 11.57
[3]
  EC50: 4.9 pM

## CCCCCCCCCCCC(=O)NCCCCCC(=O)NCCCCCC(=O)NCCCC[C@H](NC(=O)[C@@H](NC(=O)[C@@H](NC(=O)[C@](C)(Cc1ccccc1)NC(=O)[C@H](C)NC(=O)[C@@H](NC(=O)[C@](C)(Cc1ccccc1)NC(=O)[C@H](CCC(=O)O)NC(=O)[C@](C)(CCCCN)NC(=O)[C@H](C)NC(=O)[C@H](C)NC(=O)[C@H](CCC(=O)O)NC(=O)CNC(=O)[C@H](CCC(=O)O)NC(=O)[C@H](CC(C)C)NC(=O)[C@](C)(Cc1ccccc1)NC(=O)[C@H](CO)NC(=O)[C@](C)(CO)NC(=O)[C@@H](NC(=O)[C@H](CC(=O)O)NC(=O)[C@H](CO)NC(=O)[C@@H](NC(=O)[C@](C)(Cc1ccccc1)NC(=O)[C@H](CO)NC(=O)CNC(=O)[C@H](CCC(=O)O)NC(=O)C(C)(C)NC(=O)[C@@H](N)Cc1c[nH]cn1)[C@@H](C)O)C(C)C)[C@@H](C)CC)C(C)C)C(C)C)C(=O)NCC(=O)NCC(N)=O [compound 168]
[1]; [4]
  pEC50: ≤ 7.55
[1]; [5]
  pEC50: ≤ 7.55
[2]; [6]
  pEC50: ≤ 7.55
[2]; [7]
  pEC50: ≤ 7.55
GLP-1R (INS1e assay)
  EC50: 326 pM
GLP-1R (INS1e assay); [8]
  pEC50: 9.72
GLP-1R (INS1e assay); [9]
  pEC50: 9.34
[3]; [10]
  pEC50: 11.29
[3]; [11]
  pEC50: 11.59
[3]
  EC50: 3.8 pM

## CCCCCCCCCCCC(=O)NCCCCCC(=O)NCCCCCC(=O)NCCCCCC(=O)NCCCC[C@H](NC(=O)[C@@H](NC(=O)[C@@H](NC(=O)[C@](C)(Cc1ccccc1)NC(=O)[C@H](C)NC(=O)[C@@H](NC(=O)[C@](C)(Cc1ccccc1)NC(=O)[C@H](CCC(=O)O)NC(=O)[C@](C)(CCCCN)NC(=O)[C@H](C)NC(=O)[C@H](C)NC(=O)[C@H](CCC(=O)O)NC(=O)CNC(=O)[C@H](CCC(=O)O)NC(=O)[C@H](CC(C)C)NC(=O)[C@](C)(Cc1ccccc1)NC(=O)[C@H](CO)NC(=O)[C@](C)(CO)NC(=O)[C@@H](NC(=O)[C@H](CC(=O)O)NC(=O)[C@H](CO)NC(=O)[C@@H](NC(=O)[C@](C)(Cc1ccccc1)NC(=O)[C@H](CO)NC(=O)CNC(=O)[C@H](CCC(=O)O)NC(=O)C(C)(C)NC(=O)[C@@H](N)Cc1c[nH]cn1)[C@@H](C)O)C(C)C)[C@@H](C)CC)C(C)C)C(C)C)C(=O)NCC(=O)NCC(N)=O [compound 169]
[1]; [4]
  pEC50: ≤ 7.57
[1]; [5]
  pEC50: ≤ 7.57
[2]; [6]
  pEC50: ≤ 7.57
[2]; [7]
  pEC50: ≤ 7.57
GLP-1R (INS1e assay)
  EC50: 181 pM
GLP-1R (INS1e assay); [8]
  pEC50: 10.03
GLP-1R (INS1e assay); [9]
  pEC50: 9.57
[3]; [10]
  pEC50: 11.47
[3]; [11]
  pEC50: 11.77
[3]
  EC50: 2.6 pM

## CCCCCCCCCCCC(=O)NCCOCCOCC(=O)NCCOCCOCC(=O)NCCCC[C@H](NC(=O)[C@@H](NC(=O)[C@@H](NC(=O)[C@](C)(Cc1ccccc1)NC(=O)[C@H](C)NC(=O)[C@@H](NC(=O)[C@](C)(Cc1ccccc1)NC(=O)[C@H](CCC(=O)O)NC(=O)[C@](C)(CCCCN)NC(=O)[C@H](C)NC(=O)[C@H](C)NC(=O)[C@H](CCC(=O)O)NC(=O)CNC(=O)[C@H](CCC(=O)O)NC(=O)[C@H](CC(C)C)NC(=O)[C@](C)(Cc1ccccc1)NC(=O)[C@H](CO)NC(=O)[C@](C)(CO)NC(=O)[C@@H](NC(=O)[C@H](CC(=O)O)NC(=O)[C@H](CO)NC(=O)[C@@H](NC(=O)[C@](C)(Cc1ccccc1)NC(=O)[C@H](CO)NC(=O)CNC(=O)[C@H](CCC(=O)O)NC(=O)C(C)(C)NC(=O)[C@@H](N)Cc1c[nH]cn1)[C@@H](C)O)C(C)C)[C@@H](C)CC)C(C)C)C(C)C)C(=O)NCC(=O)NCC(N)=O [compound 171]
[1]; [4]
  pEC50: ≤ 7.57
[1]; [5]
  pEC50: ≤ 7.57
[2]; [6]
  pEC50: ≤ 7.57
[2]; [7]
  pEC50: ≤ 7.57
GLP-1R (INS1e assay)
  EC50: 128 pM
GLP-1R (INS1e assay); [8]
  pEC50: 10.09
GLP-1R (INS1e assay); [9]
  pEC50: 9.76
[3]; [10]
  pEC50: 11.60
[3]; [11]
  pEC50: 11.92
[3]
  EC50: 1.9 pM

## CCCCCCCCCCCC(=O)NCCOCCOCC(=O)NCCOCCOCC(=O)NCCOCCOCC(=O)NCCCC[C@H](NC(=O)[C@@H](NC(=O)[C@@H](NC(=O)[C@](C)(Cc1ccccc1)NC(=O)[C@H](C)NC(=O)[C@@H](NC(=O)[C@](C)(Cc1ccccc1)NC(=O)[C@H](CCC(=O)O)NC(=O)[C@](C)(CCCCN)NC(=O)[C@H](C)NC(=O)[C@H](C)NC(=O)[C@H](CCC(=O)O)NC(=O)CNC(=O)[C@H](CCC(=O)O)NC(=O)[C@H](CC(C)C)NC(=O)[C@](C)(Cc1ccccc1)NC(=O)[C@H](CO)NC(=O)[C@](C)(CO)NC(=O)[C@@H](NC(=O)[C@H](CC(=O)O)NC(=O)[C@H](CO)NC(=O)[C@@H](NC(=O)[C@](C)(Cc1ccccc1)NC(=O)[C@H](CO)NC(=O)CNC(=O)[C@H](CCC(=O)O)NC(=O)C(C)(C)NC(=O)[C@@H](N)Cc1c[nH]cn1)[C@@H](C)O)C(C)C)[C@@H](C)CC)C(C)C)C(C)C)C(=O)NCC(=O)NCC(N)=O [compound 172]
[1]; [4]
  pEC50: ≤ 7.59
[1]; [5]
  pEC50: ≤ 7.59
[2]; [6]
  pEC50: ≤ 7.59
[2]; [7]
  pEC50: ≤ 7.59
GLP-1R (INS1e assay)
  EC50: 33.8 pM
GLP-1R (INS1e assay); [8]
  pEC50: 10.40
GLP-1R (INS1e assay); [9]
  pEC50: 10.55
[3]; [10]
  pEC50: 11.82
[3]
  EC50: 1.1 pM

Reference: US10414811B2, “Protease-resistant lipidated GLP-1 analogs” (MEDIMMUNE LIMITED, priority 2015, dated 2019)
